This is an account of results in US7258878B2, “Anti-microbial composition and methods of use thereof” (Kimberly-Clark Worldwide, Inc., priority 2004, dated 2007).

Where two headings read alike, the source gives them in different places.

Usually zone of inhibition stands for the size of the clear area around the sample on an inoculated plate.

The test system of assay [1] is S. aureus (ATCC 6538; Gram positive bacteria). The assay is described as follows: Zone of inhibition test against S. aureus. As to conditions: for zone of inhibition at 1000 µg/mL / zone of inhibition at 10000 µg/mL: Staphylococcus aureus. It is filed as cell-based, Staphylococcus aureus. The procedure:
(§1) Natural compounds were evaluated for anti-microbial activity using the zone of inhibition test (ASTM E214901). The activity against five types of microorganisms: Staphylococcus aureus, Pseudomonas aeruginosa, Escherichia coli, Aspergillis niger and Candida albicans, was evaluated. These microorganisms represent gram positive and gram negative bacteria, fungi and yeast.
(§2) The compounds were tested for activity against E. coli (ATCC 8739; Gram negative bacteria), S. aureus (ATCC 6538; Gram positive bacteria), P. aeruginosa (ATCC 9027; Gram negative bacteria), C. albicans (ATCC 10231; yeast) and A niger (ATCC 16404; fungus) at 1 and 10 mg/ml concentrations by using the zone of inhibition method along with triclosan as a positive control.
(§3) The following natural compounds were tested for their anti-fungal properties: eucalyptol, cineole (SIGMA C-8144); gallic acid, 3,4,5-trihydroxybenzoic acid (SIGMA G-7384); methyl jasmonate, 95% (Aldrich 39270-7); and naringin: >95%, made from citrus fruit (SIGMA N-1376). A DMSO/water (75/25 by volume) mixture was used as the carrying solvent for each compound tested. The compounds were tested at 1 and 10 mg/ml concentrations by using the zone of inhibition method along with triclosan as a positive control.
(§4) Microorganism cultures of 10^5 cfu (colony forming units)/ml in a 1×PBS (phosphate buffered saline) solution were used. One ml of the solution was plated on a trypticase soy agar plate (TSA) and allowed to grow at 35° C. for four hours. 4 mm diameter wells were then punched in each TSA plate and 100 μl of each compound being tested was added to these wells. The plates were incubated overnight at 35° C. Lawn clearing was measured the next day as an indicator of antimicrobial activity.

In assay [2] the test system is P. aeruginosa (ATCC 9027; Gram negative bacteria). The assay is described as follows: Zone of inhibition test against P. aeruginosa. It is filed as cell-based, Pseudomonas aeruginosa. As to conditions: for zone of inhibition at 1000 µg/mL / zone of inhibition at 10000 µg/mL: Pseudomonas aeruginosa. Here is the method: as §1, §2, §3, §4
Assay [3] relates to E. coli (ATCC 8739; Gram negative bacteria). The assay is described as follows: Zone of inhibition test against E. coli. The format is cell-based, Escherichia coli. As to conditions: for zone of inhibition at 1000 µg/mL / zone of inhibition at 10000 µg/mL: Escherichia coli. The procedure:
as §1, §2, §3, §4

Assay [4] concerns C. albicans (ATCC 10231; yeast). The assay is described as follows: Zone of inhibition test against C. albicans. It is filed as cell-based, Candida albicans. The following applies: for zone of inhibition at 1000 µg/mL / zone of inhibition at 10000 µg/mL: Candida albicans; for Selective inhibition of C. albicans (conclusion in words): zone of inhibition, five organisms tested, 1 and 10 mg/ml. Here is the method:
as §1, §2, §3, §4

The test system of assay [5] is A niger (ATCC 16404; fungus). The experiment in a line: Zone of inhibition test against A. niger. The format is cell-based, Aspergillis niger. The following applies: for zone of inhibition at 1000 µg/mL / zone of inhibition at 10000 µg/mL: Aspergillus niger. The procedure: as §1, §2, §3, §4
Assay [6] relates to Lactobacillus acidophilus (ATCC 11975). The experiment in a line: Zone of inhibition test against Lactobacillus acidophilus. The format is cell-based. The following applies: sample size 100 μl; for Zone of Inhibition: duplicate. Here is the method: as §4
Five of these compounds were tested against Lactobacillus acidophilus (ATCC 11975). None of the compounds tested had antimicrobial activity against lactobacilli, a microorganism normally found in humans, specifically in the vagina. Due to their ability to derive lactic acid from glucose, these bacteria create an acidic environment that inhibits growth of many bacterial species that can lead to urogenital infections. Lactobacillus is generally harmless to humans, rarely inciting harmful infections or diseases. Thus, these compounds can be effectively utilized to develop products to address infections arising from Candida, Aspergillus and related species without destroying the normal balance of microbial species found in human gastrointestinal tract.
Gallic acid, 3,4,5-trihydroxybenzoic acid (SIGMA G-7384); eucalyptol, cineole (SIGMA C-8144); naringin: >95%, made from citrus fruit (SIGMA N-1376), and methyl jasmonate, 95% (Aldrich 39270-7) were tested in two concentrations (1 and 10 mg/ml) in DMSO:water (75:25) along with positive control (chlorhexidine 5 mg/ml in 75:25 DMSO:water) and a negative control (75:25 DMSO:water). All tests were conducted in duplicate in a zone of inhibition study (as described in Example 1).

The mark [7] stands for this setting: ATCC6538, concentration 1 mg/ml, 100 μl per well, DMSO/water 75/25, read-out: Zone of inhibition S. aureus.
The mark [8] stands for this setting: ATCC6538, concentration 10 mg/ml, 100 μl per well, DMSO/water 75/25.
Setting [9] is: ATCC9027, concentration 1 mg/ml, 100 μl per well, DMSO/water 75/25, read-out: Zone of inhibition P. aeruginosa.
[10] abbreviates: ATCC9027, concentration 10 mg/ml, 100 μl per well, DMSO/water 75/25.
Setting [11] is: ATCC8739, concentration 1 mg/ml, 100 μl per well, DMSO/water 75/25, read-out: Zone of inhibition E. coli.
Setting [12] is: ATCC8739, concentration 10 mg/ml, 100 μl per well, DMSO/water 75/25.
Where [13] appears, read: ATCC10231, concentration 1 mg/ml, 100 μl per well, DMSO/water 75/25, read-out: Zone of inhibition C. albicans.
Setting [14] is: ATCC10231, concentration 10 mg/ml, 100 μl per well, DMSO/water 75/25.
Setting [15] is: ATCC16404, concentration 1 mg/ml, 100 μl per well, DMSO/water 75/25, read-out: Zone of inhibition A. niger.
Setting [16] is: ATCC16404, concentration 10 mg/ml, 100 μl per well, DMSO/water 75/25.
The mark [17] stands for this setting: 1 mg/ml in DMSO:water 75:25, inoculum 5.8 × 10^5 CFU/ml.
[18] abbreviates: 10 mg/ml in DMSO:water 75:25, inoculum 5.8 × 10^5 CFU/ml.
The mark [19] stands for this setting: concentration 1 mg/ml, 100 μl per well, DMSO/water 75/25.
[20] abbreviates: concentration 10 mg/ml, 100 μl per well, DMSO/water 75/25.

For the compound `O=C(O)c1cc(O)c(O)c(O)c1` [Gallic acid, 3,4,5-trihydroxybenzoic acid], the zone of inhibition at 1000 µg/mL in assay [1] (setting [7]) came out at 0 mm; in assay [2] (setting [9]) it was 0 mm; in assay [3] (setting [11]), 0 mm; in assay [4] (setting [13]), 5 mm; in assay [5] (setting [15]), 0 mm. In addition, the zone of inhibition at 10000 µg/mL in assay [1] (setting [8]) was determined as 0 mm; in assay [2] (setting [10]), 0 mm; in assay [3] (setting [12]) it was 0 mm; in assay [4] (setting [14]) it was 4 mm; in assay [5] (setting [16]), 0 mm. Also, the “Selective inhibition of C. albicans (conclusion in words)” value (from here on “Selective inhibition of C. albicans”) in assay [4] was “selective inhibitors of C. albicans with no effect on the other four organisms tested”. Besides, the “Zone of Inhibition” value in assay [6] (setting [17]) and in assay [6] (setting [18]) was “None” throughout.
Take `C[C@@H]1O[C@@H](O[C@H]2[C@H](Oc3cc(O)c4c(c3)OC(c3ccc(O)cc3)CC4=O)O[C@H](CO)[C@@H](O)[C@@H]2O)[C@H](O)[C@H](O)[C@H]1O` (stereo partly drawn) [Naringin, 7-[[2-O-(6-Deoxy-α-L-mannopyrano-syl)-β-D-glucopyranosyl]oxy]-2,3-dihydro-5-hydroxy-2-(4-hydroxyphenyl)-4H-1-benzopyran-4-one]: the “Zone of inhibition S. aureus” value in assay [1] (setting [19]) and in assay [1] (setting [20]) was 0 mm each time. The “Zone of inhibition P. aeruginosa” value in assay [2] (setting [19]) and in assay [2] (setting [20]) was 0 mm in each case. For the same compound, the “Zone of inhibition E. coli” value in assay [3] (setting [19]) and in assay [3] (setting [20]) was 0 mm in each case. The figures for the “Zone of inhibition C. albicans” value in assay [4] (setting [19]) and in assay [4] (setting [20]) were 3 mm and 3.5 mm, respectively. For the same compound, in assay [4], the “Selective inhibition of C. albicans” value is on record as “selective inhibitors of C. albicans with no effect on the other four organisms tested”. Also, the “Zone of inhibition A. niger” value in assay [5] (setting [19]) and in assay [5] (setting [20]) was 0 mm each time. In addition, the “Zone of Inhibition” value in assay [6] (setting [17]) and in assay [6] (setting [18]) was “None” throughout.
Turning to `CC12CCC(CC1)C(C)(C)O2` [Eucalyptol, 1,3,3-Trimethyl-2-oxabicyclo[2,2,2]-octane], the zone of inhibition at 1000 µg/mL in assay [1] (setting [7]) was 0 mm; in assay [2] (setting [9]), 0 mm; in assay [3] (setting [11]), 0 mm; in assay [4] (setting [13]), 3 mm; in assay [5] (setting [15]), 0 mm. Moreover, the zone of inhibition at 10000 µg/mL in assay [1] (setting [8]) was determined as 0 mm; in assay [2] (setting [10]) it was 0 mm; in assay [3] (setting [12]), 0 mm; in assay [4] (setting [14]), 3 mm; in assay [5] (setting [16]), 0 mm. Moreover, in assay [4], the “Selective inhibition of C. albicans” value is recorded as “selective inhibitors of C. albicans with no effect on the other four organisms tested”. Also, the “Zone of Inhibition” value in assay [6] (setting [17]) and in assay [6] (setting [18]) was “None” in each case.
In the case of `Oc1cc(Cl)ccc1Oc1ccc(Cl)cc1Cl` [Triclosan, triclosan, reference compound], the zone of inhibition at 1000 µg/mL in assay [1] (ATCC6538, read-out: Zone of inhibition S. aureus) was 10 mm; in assay [2] (ATCC9027, read-out: Zone of inhibition P. aeruginosa), 0 mm; in assay [3] (ATCC8739, read-out: Zone of inhibition E. coli) it was 11 mm; in assay [4] (ATCC10231, read-out: Zone of inhibition C. albicans), 8.5 mm; in assay [5] (ATCC16404, read-out: Zone of inhibition A. niger), 10 mm.
On to `[H]/N=C(\N/C(=N/[H])NCCCCCCNC(=N)NC(=N)Nc1ccc(Cl)cc1)Nc1ccc(Cl)cc1` [Positive control, chlorhexidine, reference compound], for which the zone of inhibition at 5000 µg/mL in assay [6] (Lactobacillus acidophilus, ATCC11975, positive control, chlorhexidine 5 mg/ml in 75:25 DMSO:water, inoculum 5.8 × 10^5 CFU/ml) stood at 6 mm.
Regarding `CC/C=C\CC1C(=O)CCC1CC(=O)OC` (centres unmarked) [Methyl jasmonate, methyl jasmonate], the entries for the “Zone of inhibition S. aureus” value in assay [1] (setting [19]) and in assay [1] (setting [20]) were 0 mm and 2 mm, respectively. Besides, the “Zone of inhibition P. aeruginosa” value in assay [2] (setting [19]) and in assay [2] (setting [20]) was 0 mm throughout. Moreover, the “Zone of inhibition E. coli” value in assay [3] (setting [19]) and in assay [3] (setting [20]) was 0 mm throughout. For the same compound, the figures for the “Zone of inhibition C. albicans” value in assay [4] (setting [19]) and in assay [4] (setting [20]) were 0 mm and 7.5 mm, respectively. The “Selective inhibition of C. albicans” value in assay [4] is “selectively inhibit both C. albicans and A. niger”. Moreover, the results for the “Zone of inhibition A. niger” value in assay [5] (setting [19]) and in assay [5] (setting [20]) were 0 mm and 5 mm, respectively. Also, the “Selective inhibition of A. niger (conclusion in words)” value in assay [5] (zone of inhibition, five organisms tested, 1 and 10 mg/ml) is “selectively inhibit both C. albicans and A. niger”. Further, the “Zone of Inhibition” value in assay [6] (setting [17]) and in assay [6] (setting [18]) was “None” each time.
